Data as given in US11898187B2 (priority 2017, dated 2024).

System: HiNGT, EcNGT, ApNGT and ApNGT^Q469A
Assay type: biochemical

## WGNWS
  differential sequence preference in regard to N-glycosylation: which NGT modifies the sequence: for EcNGT but not for HiNGT
